{"source": "PubChem BioAssay AID2060884", "about": "(Molecular Pharmacology Branch, DTP, NCI, 2025)", "system": "NCI-H929 complex spheroids, viability % test/control", "assay": "Anticancer human tumor NCI-H929 cell line growth inhibition [RAS];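 note: compound exposure lasted seven days before viability was read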;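 for viability, T/C: 100% = DMSO vehicle control viability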", "settings": "for viability, T/C: stronger effect = lower value", "summary_of_the_method": "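Multi-cell-type spheroids: tumor cells plus HUVEC endothelial cells and mesenchymal stem cells. RAS-pathway inhibitors were combined with targeted agents, each dosed in half-log steps down from clinical Cmax, or from 10 microM when Cmax was unknown.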"}
{"smiles": "CCN1CCN(Cc2ccc(Nc3ncc(F)c(-c4cc(F)c5nc(C)n(C(C)C)c5c4)n3)nc2)CC1", "note": "+ CCn1c(-c2cccnc2C(C)OC)c2c3cc(ccc31)N1CCOC(CC(NC(=O)C(C(C)C)N(C)C(=O)C3(F)CCN(C(=O)C#CC(C)(C)N(C)C)CC3)C(=O)N3CCCC(N3)C(=O)OCC(C)(C)C2)C1", "values": [{"measurement": "IC50", "setting": "curve of first compound, second compound 0.000949 µM", "value": 0.776, "unit": "µM"}, {"measurement": "IC50", "setting": "curve of first compound, second compound 0.003 µM", "value": 0.746, "unit": "µM"}, {"measurement": "IC50", "setting": "curve of first compound, second compound 0.00949 µM", "value": 0.814, "unit": "µM"}, {"measurement": "IC50", "setting": "curve of first compound, second compound 0.03 µM", "value": 0.734, "unit": "µM"}, {"measurement": "IC50", "setting": "curve of first compound, second compound 0.0949 µM", "value": 0.662, "unit": "µM"}, {"measurement": "IC50", "setting": "curve of first compound, second compound 0.3 µM", "value": 0.619, "unit": "µM"}, {"measurement": "viability, T/C", "setting": "second compound 0.000949 µM, first compound 0.00316 µM", "value": 105, "unit": "%"}, {"measurement": "viability, T/C", "setting": "second compound 0.000949 µM, first compound 0.01 µM", "value": 97.9, "unit": "%"}, {"measurement": "viability, T/C", "setting": "second compound 0.000949 µM, first compound 0.0316 µM", "value": 105, "unit": "%"}, {"measurement": "viability, T/C", "setting": "second compound 0.000949 µM, first compound 0.1 µM", "value": 101, "unit": "%"}, {"measurement": "viability, T/C", "setting": "second compound 0.000949 µM, first compound 0.316 µM", "value": 104, "unit": "%"}, {"measurement": "viability, T/C", "setting": "second compound 0.000949 µM, first compound 1 µM", "value": 35.1, "unit": "%"}, {"measurement": "viability, T/C", "setting": "second compound 0.003 µM, first compound 0.00316 µM", "value": 103, "unit": "%"}, {"measurement": "viability, T/C", "setting": "second compound 0.003 µM, first compound 0.01 µM", "value": 101, "unit": "%"}, {"measurement": "viability, T/C", "setting": "second compound 0.003 µM, first compound 0.0316 µM", "value": 103, "unit": "%"}, {"measurement": "viability, T/C", "setting": "second compound 0.003 µM, first compound 0.1 µM", "value": 105, "unit": "%"}, {"measurement": "viability, T/C", "setting": "second compound 0.003 µM, first compound 0.316 µM", "value": 106, "unit": "%"}, {"measurement": "viability, T/C", "setting": "second compound 0.003 µM, first compound 1 µM", "value": 31.7, "unit": "%"}, {"measurement": "viability, T/C", "setting": "second compound 0.00949 µM, first compound 0.00316 µM", "value": 96.8, "unit": "%"}, {"measurement": "viability, T/C", "setting": "second compound 0.00949 µM, first compound 0.01 µM", "value": 104, "unit": "%"}, {"measurement": "viability, T/C", "setting": "second compound 0.00949 µM, first compound 0.0316 µM", "value": 99.9, "unit": "%"}, {"measurement": "viability, T/C", "setting": "second compound 0.00949 µM, first compound 0.1 µM", "value": 104, "unit": "%"}, {"measurement": "viability, T/C", "setting": "second compound 0.00949 µM, first compound 0.316 µM", "value": 107, "unit": "%"}, {"measurement": "viability, T/C", "setting": "second compound 0.00949 µM, first compound 1 µM", "value": 38.6, "unit": "%"}, {"measurement": "viability, T/C", "setting": "second compound 0.03 µM, first compound 0.00316 µM", "value": 97.4, "unit": "%"}, {"measurement": "viability, T/C", "setting": "second compound 0.03 µM, first compound 0.01 µM", "value": 101, "unit": "%"}, {"measurement": "viability, T/C", "setting": "second compound 0.03 µM, first compound 0.0316 µM", "value": 106, "unit": "%"}, {"measurement": "viability, T/C", "setting": "second compound 0.03 µM, first compound 0.1 µM", "value": 101, "unit": "%"}, {"measurement": "viability, T/C", "setting": "second compound 0.03 µM, first compound 0.316 µM", "value": 108, "unit": "%"}, {"measurement": "viability, T/C", "setting": "second compound 0.03 µM, first compound 1 µM", "value": 30.8, "unit": "%"}, {"measurement": "viability, T/C", "setting": "second compound 0.0949 µM, first compound 0.00316 µM", "value": 99.4, "unit": "%"}, {"measurement": "viability, T/C", "setting": "second compound 0.0949 µM, first compound 0.01 µM", "value": 99.5, "unit": "%"}, {"measurement": "viability, T/C", "setting": "second compound 0.0949 µM, first compound 0.0316 µM", "value": 102, "unit": "%"}, {"measurement": "viability, T/C", "setting": "second compound 0.0949 µM, first compound 0.1 µM", "value": 103, "unit": "%"}, {"measurement": "viability, T/C", "setting": "second compound 0.0949 µM, first compound 0.316 µM", "value": 104, "unit": "%"}, {"measurement": "viability, T/C", "setting": "second compound 0.0949 µM, first compound 1 µM", "value": 21.2, "unit": "%"}, {"measurement": "viability, T/C", "setting": "second compound 0.3 µM, first compound 0.00316 µM", "value": 98.7, "unit": "%"}, {"measurement": "viability, T/C", "setting": "second compound 0.3 µM, first compound 0.01 µM", "value": 104, "unit": "%"}, {"measurement": "viability, T/C", "setting": "second compound 0.3 µM, first compound 0.0316 µM", "value": 105, "unit": "%"}, {"measurement": "viability, T/C", "setting": "second compound 0.3 µM, first compound 0.1 µM", "value": 106, "unit": "%"}, {"measurement": "viability, T/C", "setting": "second compound 0.3 µM, first compound 0.316 µM", "value": 109, "unit": "%"}, {"measurement": "viability, T/C", "setting": "second compound 0.3 µM, first compound 1 µM", "value": 11.2, "unit": "%"}]}
{"smiles": "CCn1c(-c2cc(N3CCN(C)CC3)cnc2C(C)OC)c2c3cc(ccc31)-c1csc(n1)CC(NC(=O)C1CC1C)C(=O)N1CCCC(N1)C(=O)OCC(C)(C)C2", "note": "(stereo not drawn)", "values": [{"measurement": "viability, T/C", "setting": "compound 0.000949 µM", "value": "102% [middle of 8 runs]"}, {"measurement": "viability, T/C", "setting": "compound 0.003 µM", "value": "101% [middle of 8 runs]"}, {"measurement": "viability, T/C", "setting": "compound 0.00949 µM", "value": "116% [middle of 8 runs]"}, {"measurement": "viability, T/C", "setting": "compound 0.0949 µM", "value": "5.7% [middle of 8 runs]"}, {"measurement": "viability, T/C", "setting": "compound 0.3 µM", "value": "3.64% [middle of 8 runs]"}, {"measurement": "IC50", "setting": "compound alone, run of 08/26/2024", "value": "31.5 nM [middle of 8 runs]"}]}
